Reference: article PMC12814364 (Journal of the American Chemical Society, 2025)
Like-named read-outs stand apart in the source and are kept apart here.

Assays:
[1] = biological target: T1, HBHA110–199 (Mycobacterium tuberculosis, UniProt P9WIP9); assay: ITC binding of HS hexadecasaccharides with HBHA110–199
[2] = biological target: T1, HBHA110–199; assay: Circular dichroism of HBHA110–199 with added sugar; settings: data not shown
[3] = biological target: T2, full-length HBHA (Mycobacterium tuberculosis, UniProt P9WIP9); assay: Far-UV circular dichroism of full-length HBHA with added sugar
T2 sequence (P9WIP9 1-199): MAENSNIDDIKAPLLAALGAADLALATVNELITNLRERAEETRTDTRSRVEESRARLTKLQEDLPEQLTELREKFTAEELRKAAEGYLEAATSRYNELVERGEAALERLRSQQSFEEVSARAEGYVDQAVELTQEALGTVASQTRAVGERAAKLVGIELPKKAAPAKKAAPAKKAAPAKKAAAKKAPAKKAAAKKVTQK

[4] = biological target: T1, HBHA110–199; format: binding

O=C(O)[C@@H]1O[C@@H](O[C@H]2[C@H](O)[C@@H](NS(=O)(=O)O)[C@@H](O[C@H]3[C@H](O)[C@@H](OS(=O)(=O)O)[C@H]4OC[C@@H]3O4)O[C@@H]2COS(=O)(=O)O)[C@H](OS(=O)(=O)O)[C@@H](O)[C@@H]1O[C@H]1O[C@H](COS(=O)(=O)O)[C@@H](O[C@@H]2O[C@@H](C(=O)O)[C@@H](O[C@H]3O[C@H](COS(=O)(=O)O)[C@@H](O[C@@H]4O[C@@H](C(=O)O)[C@@H](O[C@H]5O[C@H](COS(=O)(=O)O)[C@@H](O[C@@H]6O[C@@H](C(=O)O)[C@@H](O[C@H]7O[C@H](COS(=O)(=O)O)[C@@H](O[C@@H]8O[C@@H](C(=O)O)[C@@H](O[C@H]9O[C@H](COS(=O)(=O)O)[C@@H](O[C@@H]%10O[C@@H](C(=O)O)[C@@H](O[C@H]%11O[C@H](COS(=O)(=O)O)[C@@H](O[C@@H]%12O[C@@H](C(=O)O)[C@@H](O[C@H]%13O[C@H](COS(=O)(=O)O)[C@@H](O)[C@H](O)[C@H]%13NS(=O)(=O)O)[C@H](O)[C@H]%12OS(=O)(=O)O)[C@H](O)[C@H]%11NS(=O)(=O)O)[C@H](O)[C@H]%10OS(=O)(=O)O)[C@H](O)[C@H]9NS(=O)(=O)O)[C@H](O)[C@H]8OS(=O)(=O)O)[C@H](O)[C@H]7NS(=O)(=O)O)[C@H](O)[C@H]6OS(=O)(=O)O)[C@H](O)[C@H]5NS(=O)(=O)O)[C@H](O)[C@H]4OS(=O)(=O)O)[C@H](O)[C@H]3NS(=O)(=O)O)[C@H](O)[C@H]2OS(=O)(=O)O)[C@H](O)[C@H]1NS(=O)(=O)O [compound 24]
n (sugar-to-protein binding ratio) ([1]; 25 °C, Tris buffer pH 7.6): 0.27 ± 0.01
ΔG ([1]; 25 °C, Tris buffer pH 7.6): –7.82 ± 0.02 kcal/mol
ΔH ([1]; 25 °C, Tris buffer pH 7.6): 16.00 ± 0.00 kcal/mol
–TΔS ([1]; 25 °C, Tris buffer pH 7.6): –23.85 ± 0.08 kcal/mol
Kd ([1]; Tris buffer pH 7.6, 25 °C, two trials, average ± standard deviation, read-out: dissociation constant, KD): 1870 ± 60 nM
changes in CD spectra of HBHA110–199 [2]: no noteworthy changes
random coil of full-length HBHA ([3]; HBHA:compound 1:0.5): 52.4%
β-sheet of full-length HBHA ([3]; HBHA:compound 1:0.5): 24.0%
α-helix of full-length HBHA ([3]; HBHA:compound 1:0.5, far-UV CD 195–260 nm): 23.6%
random coil of full-length HBHA ([3]; HBHA:compound 1:1): 51.9%
α-helix of full-length HBHA ([3]; HBHA:compound 1:1): 24.9%
β-sheet of full-length HBHA ([3]; HBHA:compound 1:1): 23.2%
random coil of full-length HBHA ([3]; HBHA:compound 1:1.5): 52.2%
α-helix of full-length HBHA ([3]; HBHA:compound 1:1.5): 24.4%
β-sheet of full-length HBHA ([3]; HBHA:compound 1:1.5): 23.4%
increase in α-helical content of bound HBHA ([3]; estimated by Dichroweb, roughly 16 residues): approximately 8%
Kd ([4]; Average of Repeat I P(KKAA), residue 160-164, read-out: Dissociation constant from NMR cross-peak movement, average): 8700 nM
Kd ([4]; Average of Repeat II P(AKKAA), residue 165-170, read-out: Dissociation constant from NMR cross-peak movement, average): 3200 nM
Kd ([4]; Average of Repeat III P(AKKAA), residue 171-176, read-out: Dissociation constant from NMR cross-peak movement, average): 2900 nM
Kd ([4]; Average of Repeat IV P([…]), residue 177-186, read-out: Dissociation constant from NMR cross-peak movement, average): 1400 nM
Kd ([4]; Average of Repeat V P([…]), residue 187-196, read-out: Dissociation constant from NMR cross-peak movement, average): 1600 nM
Kd ([4]; from NMR cross-peak movement, read-out: average KD in the most perturbed region (residues 178–199)): 1500 nM
average Δδresidue (weighted chemical shift deviation) of HBHA110–199 ([4]; protein-to-sugar molar ratio 1:2, all residues): 0.035 ppm
Kd ([4]; residue A163, Repeat I, read-out: Dissociation constant from NMR cross-peak movement): 9500 nM
Kd ([4]; residue A164, Repeat I, read-out: Dissociation constant from NMR cross-peak movement): 5400 nM
Kd ([4]; residue A166, Repeat II, read-out: Dissociation constant from NMR cross-peak movement): 3200 nM
Kd ([4]; residue A169, Repeat II, read-out: Dissociation constant from NMR cross-peak movement): 5500 nM
Kd ([4]; residue A170, Repeat II, read-out: Dissociation constant from NMR cross-peak movement): 2500 nM
Kd ([4]; residue A172, Repeat III, read-out: Dissociation constant from NMR cross-peak movement): 2200 nM
Kd ([4]; residue A175, Repeat III, read-out: Dissociation constant from NMR cross-peak movement): 2300 nM
Kd ([4]; residue A176, Repeat III, read-out: Dissociation constant from NMR cross-peak movement): 1400 nM
Kd ([4]; residue A178, Repeat IV, read-out: Dissociation constant from NMR cross-peak movement): 800 nM
Kd ([4]; residue A181, Repeat IV, read-out: Dissociation constant from NMR cross-peak movement): 1400 nM
Kd ([4]; residue A182, Repeat IV, read-out: Dissociation constant from NMR cross-peak movement): 1000 nM
Kd ([4]; residue A183, Repeat IV, read-out: Dissociation constant from NMR cross-peak movement): 700 nM
Kd ([4]; residue A186, Repeat IV, read-out: Dissociation constant from NMR cross-peak movement): 800 nM
Kd ([4]; residue A188, Repeat V, read-out: Dissociation constant from NMR cross-peak movement): 800 nM
Kd ([4]; residue A191, Repeat V, read-out: Dissociation constant from NMR cross-peak movement): 1500 nM
Kd ([4]; residue A192, Repeat V, read-out: Dissociation constant from NMR cross-peak movement): 2100 nM
Kd ([4]; residue A193, Repeat V, read-out: Dissociation constant from NMR cross-peak movement): 1000 nM
Kd ([4]; residue K161, Repeat I, read-out: Dissociation constant from NMR cross-peak movement): 12900 nM
Kd ([4]; residue K162, Repeat I, read-out: Dissociation constant from NMR cross-peak movement): 6800 nM
Kd ([4]; residue K167, Repeat II, read-out: Dissociation constant from NMR cross-peak movement): 1700 nM
Kd ([4]; residue K168, Repeat II, read-out: Dissociation constant from NMR cross-peak movement): 3200 nM
Kd ([4]; residue K173, Repeat III, read-out: Dissociation constant from NMR cross-peak movement): 1700 nM
Kd ([4]; residue K174, Repeat III, read-out: Dissociation constant from NMR cross-peak movement): 6700 nM
Kd ([4]; residue K179, Repeat IV, read-out: Dissociation constant from NMR cross-peak movement): 1300 nM
Kd ([4]; residue K190, Repeat V, read-out: Dissociation constant from NMR cross-peak movement): 1200 nM
Kd ([4]; residue K194, Repeat V, read-out: Dissociation constant from NMR cross-peak movement): 1100 nM
Kd ([4]; residue K195, Repeat V, read-out: Dissociation constant from NMR cross-peak movement): 2900 nM
Kd ([4]; residue V196, Repeat V, read-out: Dissociation constant from NMR cross-peak movement): 2300 nM
